The structures appear in SMILES notation. The source made the active and inactive calls. The rule behind the calls is not given here.

The subject of data set [1] is Plasma. Briefly: Metabolic stability in mouse plasma at 20 mg/kg, iv measured 15 to 30 mins post dosing by HPLC-MS/MS method. The data set is classed as ADME, organism-based. The note with it: in vivo.
Data set [2] concerns Brain. The experiment in a line: Drug uptake in mouse brain at 20 mg/kg, iv measured 15 to 30 mins post dosing by HPLC-MS/MS method. The data set is classed as ADME, organism-based. The note with it: in vivo.
Data set [3] deals with Brain. Briefly: Drug metabolism in mouse brain assessed as ZL006 formation at 20 mg/kg, iv measured 15 to 30 mins post dosing by HPLC-MS/MS method. The data set is classed as ADME, organism-based. The note with it: in vivo.
Data set [4] has as its system Mus musculus. The experiment in a line: Protective activity in BCCAO-induced mouse acute cerebral ischemia model assessed as prolonged surviving time at 4 mg/kg, iv measured 1 hr post dose. The data set is classed as functional, organism-based.
Data set [5] deals with Rattus norvegicus. The experiment in a line: Protective activity in MCAO-induced rat focal cerebral ischemia model assessed as reduction in infarct size at 2 mg/kg, iv administered 1 hr post reperfusion measured after 24 hrs by TTC-staining based analysis. Type of data set: functional, organism-based.
The subject of data set [6] is Rattus norvegicus. The experiment in a line: Protective activity in MCAO-induced rat focal cerebral ischemia model assessed as reduction in infarct size at 1 mg/kg, iv administered 1 hr post reperfusion measured after 24 hrs by TTC-staining based analysis. Type of data set: functional, organism-based.
In data set [7] the test system is Rattus norvegicus. Briefly: Protective activity in iv dosed MCAO-induced rat focal cerebral ischemia model assessed as reduction in infarct size treated at 1 hr post reperfusion measured after 24 hrs by TTC-staining based analysis. The data set is classed as functional, organism-based.
In data set [8] the test system is Mus musculus. Briefly: Protective activity in BCCAO-induced mouse acute cerebral ischemia model assessed as prolonged surviving time at 4 mg/kg, iv measured 4 hrs post dose. Type of data set: functional, organism-based.

For `COc1cc(NCc2cc(Cl)cc(Cl)c2O)ccc1C(=O)O`, the Stability entry in data set [1] was “Unstable”. The Drug uptake entry in data set [2] is given as “Not Active”. For the same compound, the Drug metabolism entry in data set [3] is recorded as “metabolite_notdetected”.
Take `COc1c(Cl)cc(Cl)cc1CNc1ccc(C(=O)O)c(O)c1`: the Drug metabolism entry in data set [3] is given as “metabolite_notdetected”.
Regarding `O=C(OC1CCCCC1)c1ccc(NCc2cc(Cl)cc(Cl)c2O)cc1O`, the Stability entry in data set [1] is “Stable”. Also, the outcome in data set [4], in data set [6] and in data set [8] was Active. Further, in data set [5], the outcome was inactive. In addition, the Activity entry in data set [7] was “Dose-dependent effect”. In addition, in data set [3], the Drug metabolism result is recorded as “metabolite_detected”.
With `CN(Cc1cc(Cl)cc(Cl)c1O)c1ccc(C(=O)O)c(O)c1`, the Drug uptake result in data set [2] is listed as “Not Active”. The Drug metabolism entry in data set [3] was “metabolite_notdetected”.
Take `COC(=O)c1ccc(NCc2cc(Cl)cc(Cl)c2O)cc1O`: the Stability entry in data set [1] is recorded as “Stable”. Further, the result in data set [4] was Active. For the same compound, in data set [3], the Drug metabolism result is listed as “metabolite_detected”.
Turning to `CCOC(=O)c1ccc(NCc2cc(Cl)cc(Cl)c2O)cc1O`, the Stability entry in data set [1] is listed as “Stable”. The outcome in data set [4] and in data set [8] was Active. In addition, the Drug metabolism result in data set [3] is “metabolite_detected”.
